According to US8920822B2, “Skin beautifier” (Megmilk Snow Brand Co., Ltd., priority 2004, dated 2014):

Columns and labels:
[1] = tested on: CD-1 (ICR)-nu/nu mice; assay: Transepidermal water loss in the tail skin of nude mice after 4 weeks of oral feeding (Tewameter); format: in vivo, mouse; settings: for Increase Rate of Transepidermal Water Loss: value at end of feeding with start = 100; for increase of the transepidermal water loss: after 4-week administration
Procedure: (§1) Effects of the skin beautifier according to the present invention were investigated by an animal test using nude mice.
(§2) A sphingomyelin raw material (Phospholac 500; manufactured by NZMP) containing 10% of sphingomyelins was dissolved in deionized water as shown in Table 1. The solution was heated to 50° C. and then mixed under stirring with an ultradisperser (ULTRA-TURRAX T-25; manufactured by IKA Japan) at 9500 rpm for 20 minutes to prepare Test Feeds 1 to 3.
(§3) Five-week old CD-1 (ICR)-nu/nu mice were divided into the following 4 test groups (10 mice in each group), namely, (Group A) a group receiving 10 g of physiological saline per kg of mouse body weight, (Group B) a group receiving 10 g of the Test Feed 1 per kg of mouse body weight, (Group C) a group receiving 10 g of the Test Feed 2 per kg of mouse body weight, and (Group D) a group receiving 10 g of the Test Feed 3 per kg of mouse body weight. Mice in all the groups were fed by orally administering the feed once daily by gavage feeding for 4 weeks. Moisture contents and transepidermal water losses in the tail skin of each mouse were measured at the start and the end of the feeding. Values at the end of the feeding (rates of increase) were calculated by assuming each of the values at the start of the feeding to be 100. The moisture contents of the skin and the transepidermal water losses were measured using Corneometer and Tewameter, respectively, which were manufactured by Courage+Khazaka.

[2] = tested on: CD-1 (ICR)-nu/nu mice; assay: Moisture content of the tail skin of nude mice after 4 weeks of oral feeding (Corneometer); format: in vivo, mouse; settings: for increase of the moisture content of the skin: end vs start of administration; for Increase Rate of Moisture: value at end of feeding with start = 100
Procedure: as §1, §2, §3

[3] = Group B, Test Feed 1, sphingomyelin 2 mg/kg orally once daily for 4 weeks
[4] = Group C, Test Feed 2, sphingomyelin 5 mg/kg orally once daily for 4 weeks
[5] = Group D, Test Feed 3, sphingomyelin 10 mg/kg orally once daily for 4 weeks
[6] = oral administration, nude mice, covers moisture content and TEWL

## sphingomyelin
[1]; [3]
  Increase Rate of Transepidermal Water Loss: 152%
[1]; Group C, 5 mg/kg orally
  increase of the transepidermal water loss: about 1.4 times
[1]; [4]
  Increase Rate of Transepidermal Water Loss: 137%
[1]; Group D, 10 mg/kg orally
  increase of the transepidermal water loss: about 1.4 times
[1]; [5]
  Increase Rate of Transepidermal Water Loss: 140%
[2]; Group B (printed Group 13), 2 mg/kg orally
  increase of the moisture content of the skin: about 1.5 times
[2]; [3]
  Increase Rate of Moisture: 155%
[2]; Group C, 5 mg/kg orally
  increase of the moisture content of the skin: about 2.5 times
[2]; [4]
  Increase Rate of Moisture: 245%
[2]; Group D, 10 mg/kg orally
  increase of the moisture content of the skin: about 2.5 times
[2]; [5]
  Increase Rate of Moisture: 253%
[2]; [6]
  dose at which the effects (skin moisture increased, transepidermal water loss decreased) were observed: ≥ 2 mg per kg of mouse body weight
  dose at which the effects (skin moisture increased, transepidermal water loss decreased) were significant: ≥ 5 mg per kg of mouse body weight
